Holding throughout (assay): cell-based
Assay [1] addresses T1, hNav1.7 (Homo sapiens, UniProt Q15858). The following applies: for pIC50: Nav1.7 Use IC50.
Assay [2] has as its target T2, hNav1.4 (Homo sapiens, UniProt P35499).
The target in assay [3] is T3, hNav1.5 (Homo sapiens, UniProt Q14524).
Assay [4] addresses T1, hNav1.7. The assay is classed as cell-based. Conditions: for pIC50: IonWorks Quattro, use-dependent block, hNav1.7, read-out: IWQ Use Nav1.7.
Assay [5] deals with T2, hNav1.4. Conditions: IonWorks Quattro, use-dependent block, hNav1.4; read-out: IWQ Use Nav1.4.
The target in assay [6] is T3, hNav1.5. Conditions: IonWorks Quattro, use-dependent block, hNav1.5; read-out: IWQ Use Nav1.5. For orientation: In patch-clamp work, channel activity is measured electrically.
The target of assay [7] is hNav1.3 (Homo sapiens, UniProt Q9NY46). Conditions: for pIC50: IonWorks Quattro, use-dependent block, hNav1.3, read-out: IWQ Use Nav1.3.

The values that follow come from patent US9340590B2 (priority 2011, dated 2016).

pIC50: −log10 of the molar value. Where two headings read alike, the source gives them in different places. Positions of bridges follow the written chain, without caps; N, C: chain ends. Non-standard residues stand in square brackets, D forms with d. Residues, ends and D or L forms follow the SMILES beside them. *: point of attachment. Biotin = O=C1N[C@H]2[C@H](CS[C@H]2CCCCC(=O)*)N1; Pra = C#CC[C@H](N)C(=O)O

T3 sequence (Q14524 whole entry, looked up): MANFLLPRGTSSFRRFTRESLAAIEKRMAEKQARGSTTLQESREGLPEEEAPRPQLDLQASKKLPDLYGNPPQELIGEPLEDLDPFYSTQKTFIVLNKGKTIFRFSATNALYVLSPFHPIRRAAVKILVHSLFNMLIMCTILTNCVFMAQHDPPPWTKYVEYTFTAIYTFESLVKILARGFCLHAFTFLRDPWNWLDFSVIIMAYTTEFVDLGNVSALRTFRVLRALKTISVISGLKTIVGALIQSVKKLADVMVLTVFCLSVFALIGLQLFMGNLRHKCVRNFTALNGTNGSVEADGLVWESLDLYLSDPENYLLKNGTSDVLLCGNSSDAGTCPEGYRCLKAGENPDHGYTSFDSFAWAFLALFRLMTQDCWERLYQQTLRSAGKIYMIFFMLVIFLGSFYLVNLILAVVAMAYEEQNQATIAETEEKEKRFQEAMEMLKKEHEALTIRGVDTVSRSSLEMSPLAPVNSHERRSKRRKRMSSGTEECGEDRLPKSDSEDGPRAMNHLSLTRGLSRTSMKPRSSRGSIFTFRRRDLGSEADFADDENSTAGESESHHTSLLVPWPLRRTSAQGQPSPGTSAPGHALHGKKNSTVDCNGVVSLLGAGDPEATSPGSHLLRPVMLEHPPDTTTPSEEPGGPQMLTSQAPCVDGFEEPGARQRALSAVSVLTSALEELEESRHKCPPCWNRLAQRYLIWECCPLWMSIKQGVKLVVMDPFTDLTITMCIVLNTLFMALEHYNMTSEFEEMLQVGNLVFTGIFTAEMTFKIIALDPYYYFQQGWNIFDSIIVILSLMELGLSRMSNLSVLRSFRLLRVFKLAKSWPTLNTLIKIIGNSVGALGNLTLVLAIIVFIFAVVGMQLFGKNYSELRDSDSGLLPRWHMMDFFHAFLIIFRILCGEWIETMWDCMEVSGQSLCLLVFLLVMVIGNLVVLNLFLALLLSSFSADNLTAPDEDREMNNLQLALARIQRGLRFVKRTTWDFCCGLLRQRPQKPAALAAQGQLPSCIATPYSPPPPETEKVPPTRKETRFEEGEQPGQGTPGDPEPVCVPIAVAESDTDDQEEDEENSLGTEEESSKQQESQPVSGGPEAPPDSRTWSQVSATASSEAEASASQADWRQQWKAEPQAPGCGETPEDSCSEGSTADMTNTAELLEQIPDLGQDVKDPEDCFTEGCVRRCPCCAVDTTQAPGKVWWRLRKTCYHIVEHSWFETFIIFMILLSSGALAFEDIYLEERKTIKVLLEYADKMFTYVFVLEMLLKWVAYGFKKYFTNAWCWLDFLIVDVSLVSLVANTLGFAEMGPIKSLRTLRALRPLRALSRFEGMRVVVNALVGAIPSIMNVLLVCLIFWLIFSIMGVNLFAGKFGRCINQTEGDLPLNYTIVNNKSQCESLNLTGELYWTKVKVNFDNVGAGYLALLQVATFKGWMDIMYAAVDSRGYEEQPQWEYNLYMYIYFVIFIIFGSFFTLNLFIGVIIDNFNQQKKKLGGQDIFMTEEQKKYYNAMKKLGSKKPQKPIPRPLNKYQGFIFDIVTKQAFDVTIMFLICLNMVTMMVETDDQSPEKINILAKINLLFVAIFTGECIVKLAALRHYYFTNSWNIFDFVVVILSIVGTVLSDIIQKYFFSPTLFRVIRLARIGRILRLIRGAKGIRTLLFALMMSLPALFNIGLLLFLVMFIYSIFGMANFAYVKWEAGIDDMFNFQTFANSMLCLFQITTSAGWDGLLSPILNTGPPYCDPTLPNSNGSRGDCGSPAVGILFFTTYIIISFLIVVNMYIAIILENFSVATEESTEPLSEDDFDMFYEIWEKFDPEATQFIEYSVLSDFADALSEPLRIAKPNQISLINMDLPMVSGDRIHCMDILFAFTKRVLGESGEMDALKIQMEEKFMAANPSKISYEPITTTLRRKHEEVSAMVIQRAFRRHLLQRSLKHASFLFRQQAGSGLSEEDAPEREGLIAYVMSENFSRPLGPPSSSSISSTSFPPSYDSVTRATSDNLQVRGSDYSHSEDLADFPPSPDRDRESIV
T1 sequence (Q15858 whole entry, looked up): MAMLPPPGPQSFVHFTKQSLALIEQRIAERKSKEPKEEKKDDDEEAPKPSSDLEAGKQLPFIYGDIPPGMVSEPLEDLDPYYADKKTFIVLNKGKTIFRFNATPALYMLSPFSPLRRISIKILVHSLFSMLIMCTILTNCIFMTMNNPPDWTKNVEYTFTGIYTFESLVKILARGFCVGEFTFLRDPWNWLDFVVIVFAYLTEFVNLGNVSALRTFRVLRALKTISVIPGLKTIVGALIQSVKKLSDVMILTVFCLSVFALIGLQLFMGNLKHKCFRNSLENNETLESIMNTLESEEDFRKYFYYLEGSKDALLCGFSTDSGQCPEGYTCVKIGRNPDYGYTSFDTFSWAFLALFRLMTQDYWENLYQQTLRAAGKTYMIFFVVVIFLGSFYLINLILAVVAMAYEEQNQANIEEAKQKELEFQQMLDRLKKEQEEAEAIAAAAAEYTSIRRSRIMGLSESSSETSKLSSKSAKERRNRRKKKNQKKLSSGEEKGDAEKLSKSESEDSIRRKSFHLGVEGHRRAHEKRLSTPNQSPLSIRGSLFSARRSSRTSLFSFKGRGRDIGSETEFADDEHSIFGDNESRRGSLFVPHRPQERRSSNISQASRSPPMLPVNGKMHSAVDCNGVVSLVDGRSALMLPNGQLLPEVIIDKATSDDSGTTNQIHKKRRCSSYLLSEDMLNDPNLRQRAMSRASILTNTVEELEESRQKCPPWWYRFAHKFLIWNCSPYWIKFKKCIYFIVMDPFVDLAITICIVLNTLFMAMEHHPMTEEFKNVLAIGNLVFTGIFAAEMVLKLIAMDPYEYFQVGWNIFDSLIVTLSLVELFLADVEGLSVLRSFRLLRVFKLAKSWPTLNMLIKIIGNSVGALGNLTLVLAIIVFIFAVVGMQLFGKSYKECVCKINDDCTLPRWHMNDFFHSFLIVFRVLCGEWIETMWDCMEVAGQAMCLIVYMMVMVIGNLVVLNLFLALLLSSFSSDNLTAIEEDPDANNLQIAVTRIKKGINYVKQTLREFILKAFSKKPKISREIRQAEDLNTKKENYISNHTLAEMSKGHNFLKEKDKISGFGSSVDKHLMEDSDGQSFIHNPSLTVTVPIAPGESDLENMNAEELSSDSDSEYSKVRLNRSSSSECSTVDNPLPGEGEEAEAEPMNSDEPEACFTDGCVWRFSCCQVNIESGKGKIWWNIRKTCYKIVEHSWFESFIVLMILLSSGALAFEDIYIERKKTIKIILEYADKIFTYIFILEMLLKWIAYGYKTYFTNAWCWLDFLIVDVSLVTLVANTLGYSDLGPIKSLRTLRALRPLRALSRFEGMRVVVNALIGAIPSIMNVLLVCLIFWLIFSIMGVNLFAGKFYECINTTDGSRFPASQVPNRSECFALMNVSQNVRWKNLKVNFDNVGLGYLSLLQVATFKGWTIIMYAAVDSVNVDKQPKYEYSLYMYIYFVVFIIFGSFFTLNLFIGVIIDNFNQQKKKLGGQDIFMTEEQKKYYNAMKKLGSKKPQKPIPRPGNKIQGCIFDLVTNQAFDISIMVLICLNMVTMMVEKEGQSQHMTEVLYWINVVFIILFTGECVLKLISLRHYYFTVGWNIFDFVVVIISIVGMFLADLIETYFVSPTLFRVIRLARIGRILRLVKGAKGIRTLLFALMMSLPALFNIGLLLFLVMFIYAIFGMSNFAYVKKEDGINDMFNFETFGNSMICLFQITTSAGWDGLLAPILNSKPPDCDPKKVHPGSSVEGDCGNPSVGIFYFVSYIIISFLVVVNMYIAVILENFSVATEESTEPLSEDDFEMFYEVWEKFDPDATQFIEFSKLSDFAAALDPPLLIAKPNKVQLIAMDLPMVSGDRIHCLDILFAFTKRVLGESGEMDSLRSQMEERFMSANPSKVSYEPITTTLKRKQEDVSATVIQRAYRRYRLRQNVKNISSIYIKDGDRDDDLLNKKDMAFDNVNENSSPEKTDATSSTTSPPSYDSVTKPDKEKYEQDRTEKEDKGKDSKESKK

Take `CC(C)C[C@@H]1NC(=O)[C@@H](NC(=O)[C@@H](N)CC(=O)O)CSSC[C@@H]2NC(=O)[C@@H]3CSSC[C@@H](C(=O)N[C@@H](CCCCN)C(=O)N[C@@H](Cc4ccc(O)cc4)C(=O)N[C@H](C(=O)N[C@@H](Cc4ccccc4)C(N)=O)C(C)C)NC(=O)[C@H](Cc4c[nH]c5ccccc45)NC(=O)[C@H](CCCNC(=N)N)NC(=O)[C@H](Cc4c[nH]cn4)NC(=O)[C@H](CC(C)C)NC(=O)[C@H](CCCNC(=N)N)NC(=O)[C@H](CO)NC(=O)[C@H](CSSC[C@H](NC(=O)[C@H](CCCCN)NC(=O)[C@H](CCCNC(=N)N)NC(=O)[C@H](Cc4ccccc4)NC(=O)[C@H](C)NC(=O)CNC1=O)C(=O)N[C@@H](CCC(=O)O)C(=O)N1CCC[C@H]1C(=O)N[C@@H](CC(=O)O)C(=O)N[C@@H](CCCCNC(=O)CCCC[C@@H]1SC[C@@H]4NC(=O)N[C@@H]41)C(=O)N[C@@H](CC(=O)O)C(=O)N[C@@H](CCCCN)C(=O)N3)NC(=O)[C@H](C(C)C)NC(=O)[C@H](CC(C)C)NC(=O)[C@H](CC(N)=O)NC(=O)[C@@H]1CCCN1C(=O)[C@H](CCCNC(=N)N)NC2=O` (H-DCLGAFRKCEPDK(Biotin)DKCCRPNLVCSRLHRWCKYVF-NH2; disulfide 2-17, 9-23, 16-30): in assay [1], the “Nav1.4/Nav1.7 Use” value is given as 475, the “Nav1.5/Nav1.7 Use” value was >667 and the pIC50 is 7.82. Besides, the pIC50 in assay [2] (Nav1.4 Use IC50) is 5.15. Further, the pIC50 in assay [3] was < 5.00.
On the same counts, the results for `CC[C@H](C)[C@@H]1NC(=O)[C@@H]2CSSC[C@@H]3NC(=O)[C@H](C(C)C)NC(=O)[C@H](CC(C)C)NC(=O)[C@H](CC(N)=O)NC(=O)[C@@H]4CCCN4C(=O)[C@H](CCCNC(=N)N)NC(=O)[C@H](CSSC[C@H](NC(=O)[C@@H](N)CC(=O)O)C(=O)N[C@@H](CC(C)C)C(=O)NCC(=O)N[C@@H](C)C(=O)N[C@@H](CC(C)C)C(=O)N[C@@H](CCCNC(=N)N)C(=O)N[C@@H](CCCCN)C(=O)N2)NC(=O)[C@H](CSSC[C@@H](C(=O)N[C@@H](CCCCN)C(=O)N[C@@H](Cc2ccc(O)cc2)C(=O)N[C@H](C(=O)N[C@@H](Cc2ccccc2)C(N)=O)C(C)C)NC(=O)[C@H](Cc2c[nH]c4ccccc24)NC(=O)[C@H](CCCNC(=N)N)NC(=O)[C@H](Cc2c[nH]cn2)NC(=O)[C@H](CC(C)C)NC(=O)[C@H](CCCNC(=N)N)NC(=O)[C@H](CO)NC3=O)NC(=O)[C@H](CCCCN)NC(=O)[C@H](CC(=O)O)NC(=O)[C@H](Cc2cn(CCOCCOCCOCCOCCOCCOCCOCCOCCOCCOCCOCCNC(=O)CSCCO)nn2)NC(=O)[C@H](CC(=O)O)NC(=O)[C@@H]2CCCN2C1=O` are >476, >476, 7.68, < 5.00 and < 5.00.
As for “Biotin-Ahx-[Ala5,Phe6,Atz(2 kDa EtO-PEG*-{Biotin-Ahx-[Ala5,Phe6,Atz13*,Leu26,Arg28]GpTx-1(1-34)})13,Leu26,Arg28]GpTx-1(1-34) [Homodimeric Conjugate 4]”, the pIC50 in assay [2] (read-out: Nav1.4 Use IC50) is 5.46; in assay [3] (read-out: Nav1.5 Use IC50) it was < 5.00.
For the compound `CC(C)C[C@@H]1NC(=O)[C@@H](NC(=O)[C@@H](N)CC(=O)O)CSSC[C@@H]2NC(=O)[C@@H]3CSSC[C@@H](C(=O)N[C@@H](CCCCN)C(=O)N[C@@H](Cc4ccc(O)cc4)C(=O)N[C@@H](CCCCN)C(=O)N[C@@H](CC(C)C)C(=O)N[C@@H](Cc4c[nH]c5ccccc45)C(=O)N[C@@H](CCCCN)C(=O)O)NC(=O)[C@H](Cc4c[nH]c5ccccc45)NC(=O)[C@H](CCCCN)NC(=O)[C@H](CC(=O)O)NC(=O)[C@H](CCCNC(=N)N)NC(=O)[C@H](CCCNC(=N)N)NC(=O)[C@H](CC(N)=O)NC(=O)[C@H](CSSC[C@H](NC(=O)CNC(=O)[C@H](CCCCN)NC(=O)[C@H](Cc4ccccc4)NC(=O)[C@H](Cc4c[nH]c5ccccc45)NC(=O)CNC1=O)C(=O)N[C@@H](CC(=O)O)C(=O)N1CCC[C@H]1C(=O)N[C@@H](CC(=O)O)C(=O)N[C@@H](CC(N)=O)C(=O)N[C@@H](CC(=O)O)C(=O)N[C@@H](CCCCN)C(=O)N3)NC(=O)[C@H](CCCCN)NC(=O)[C@H](Cc1ccc(O)cc1)NC(=O)CNC(=O)[C@H](CCC(=O)O)NC2=O` [compound 471] (H-DCLGWFKGCDPDNDKCCEGYKCNRRDKWCKYKLWK-OH; disulfide 2-17, 9-22, 16-29), the pIC50 is 5.02 in assay [4], 4.76 in assay [5], 4.84 in assay [6] and 5.77 in assay [7]. Moreover, the Nav1.4/Nav1.7 in assay [4] (ratio of IWQ Use values, Nav1.4 over Nav1.7) is recorded as 1.8. The Nav1.4/Nav1.3 in assay [7] (ratio of IWQ Use values, Nav1.4 over Nav1.3) is 10.0. The Nav1.7/Nav1.3 in assay [7] (ratio of IWQ Use values, Nav1.7 over Nav1.3) turned out to be 5.5.
Turning to `CC[C@H](C)[C@@H]1NC(=O)[C@@H]2CSSC[C@@H]3NC(=O)[C@H](C(C)C)NC(=O)[C@H](CC(C)C)NC(=O)[C@H](CC(N)=O)NC(=O)[C@@H]4CCCN4C(=O)[C@H](CCCNC(=N)N)NC(=O)[C@H](CSSC[C@H](NC(=O)[C@H](CC(=O)O)NC(=O)[C@H](CO)NC(=O)CN)C(=O)N[C@@H](CC(C)C)C(=O)NCC(=O)N[C@@H](C)C(=O)N[C@@H](CC(C)C)C(=O)N[C@@H](CCCNC(=N)N)C(=O)N[C@@H](CCCCN)C(=O)N2)NC(=O)[C@H](CSSC[C@@H](C(=O)N[C@@H](CCCCN)C(=O)N[C@@H](Cc2ccc(O)cc2)C(=O)N[C@H](C(=O)N[C@@H](Cc2ccccc2)C(=O)N[C@@H](Cc2c[nH]c4ccccc24)C(=O)O)C(C)C)NC(=O)[C@H](Cc2c[nH]c4ccccc24)NC(=O)[C@H](CCCNC(=N)N)NC(=O)[C@H](Cc2c[nH]cn2)NC(=O)[C@H]([C@@H](C)O)NC(=O)[C@H](CCCNC(=N)N)NC(=O)[C@H](CO)NC3=O)NC(=O)[C@H](CCCCN)NC(=O)[C@H](CC(=O)O)NC(=O)[C@H](CC(N)=O)NC(=O)[C@H](CC(=O)O)NC(=O)[C@@H]2CCCN2C1=O` [compound 816] (H-GSDCLGALRKCIPDNDKCCRPNLVCSRTHRWCKYVFW-OH; disulfide 4-19, 11-25, 18-32), the pIC50 in assay [4], in assay [5], in assay [6] and in assay [7] was < 5.30 in each case.
Turning to `C#CC[C@@H]1NC(=O)[C@H](CC(=O)O)NC(=O)[C@@H]2CCCN2C(=O)[C@H](CCC(=O)O)NC(=O)[C@@H]2CSSC[C@@H]3NC(=O)[C@H](C(C)C)NC(=O)[C@H](CC(C)C)NC(=O)[C@H](CC(N)=O)NC(=O)[C@@H]4CCCN4C(=O)[C@H](CCCNC(=N)N)NC(=O)[C@H](CSSC[C@H](NC(=O)[C@@H](N)CC(=O)O)C(=O)N[C@@H](CC(C)C)C(=O)NCC(=O)N[C@@H](C)C(=O)N[C@@H](CC(C)C)C(=O)N[C@@H](CCCNC(=N)N)C(=O)N[C@@H](CCCCN)C(=O)N2)NC(=O)[C@H](CSSC[C@@H](C(=O)N[C@@H](CCCCN)C(=O)N[C@@H](Cc2ccc(O)cc2)C(=O)N[C@H](C(=O)N[C@@H](Cc2ccccc2)C(N)=O)C(C)C)NC(=O)[C@H](Cc2c[nH]c4ccccc24)NC(=O)[C@H](CCCNC(=N)N)NC(=O)[C@H](Cc2c[nH]cn2)NC(=O)[C@H](CC(C)C)NC(=O)[C@H](CCCNC(=N)N)NC(=O)[C@H](CO)NC3=O)NC(=O)[C@H](CCCCN)NC(=O)[C@H](CC(=O)O)NC1=O` [compound 800] (H-DCLGALRKCEPD[Pra]DKCCRPNLVCSRLHRWCKYVF-NH2; disulfide 2-17, 9-23, 16-30), the pIC50 in assay [4] is 6.15; in assay [5] it was < 4.30; in assay [6], < 4.30; in assay [7], 5.85. For the same compound, the Nav1.7/Nav1.3 in assay [4] (ratio of IWQ Use values Nav1.7 to Nav1.3) was found to be 0.5.
